Experiment: Acidic stability (hydrolysis) of the O-2′,3′-ketal group
Assay type: physicochemical
Conditions: 1N aqueous HCl/MeCN 1:1 (v/v), RP-18 HPLC, calculated graphically; read-out: half-life under acidic conditions
Experimental: Both, the acidic hydrolysis of the O-2′,3′-ketal moiety of the ester 28a as well as the chitosanase-catalyzed degradation of chitosan foil-bound 5-fluorouridine was measured. Acidic stability was determined by incubating compound 28a (2 mg) in 1N aqueous HCl/MeCN 1:1 (v/v), neutralization by Et3N and subsequent RP-18 HPLC analysis as described above (FIG. 12).
The faster migrating zone contains always pure 5-fluorouridine, the slower migrating zone the residual ketal 28a. The half-life value was calculated graphically from a plot of the peak integral of both, the residual ketals and 5-fluorouridine vs. reaction time (FIG. 13). Upon acidic hydrolysis only the nucleoside and no 5-fluorouracil were formed.

- half-life: ~5 h
SMILES: CCOC(=O)CCC1(C)OC2C(O1)[C@@H](CO)O[C@H]2n1cc(F)c(=O)[nH]c1=O (stereo partly shown) [Compound 28a]
